According to ChEMBL document CHEMBL1201862, “PubChem BioAssay data set” (2004):
Calls of active or inactive are those of the source.

Key:
[1] = biological target: Beta-2 adrenergic receptor (Homo sapiens, UniProt P07550); assay: beta2AR agonists driving receptor internalization, dose response, cell-based, FAP fluorogen, flow cytometry, cherry pick 1 (AID 588763); assay type: functional
[2] = THP-1 cell cytotoxicity, dose response, cytotoxicity control for Vif-APOBEC3G degradation inhibitor project, THP-1 cells (AID 1117359); assay type: functional; settings: Human immunodeficiency virus 1, THP-1
[3] = biological target: T1, High affinity choline transporter 1 (Homo sapiens, UniProt Q9GZV3); assay: CHT inhibitors, dose response, cell-based, 10-point CRC, membrane potential dye (AID 588401); assay type: functional;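 also: membrane potential dye fluorescence of choline-evoked depolarization via CHT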
T1 sequence (Q9GZV3 whole entry): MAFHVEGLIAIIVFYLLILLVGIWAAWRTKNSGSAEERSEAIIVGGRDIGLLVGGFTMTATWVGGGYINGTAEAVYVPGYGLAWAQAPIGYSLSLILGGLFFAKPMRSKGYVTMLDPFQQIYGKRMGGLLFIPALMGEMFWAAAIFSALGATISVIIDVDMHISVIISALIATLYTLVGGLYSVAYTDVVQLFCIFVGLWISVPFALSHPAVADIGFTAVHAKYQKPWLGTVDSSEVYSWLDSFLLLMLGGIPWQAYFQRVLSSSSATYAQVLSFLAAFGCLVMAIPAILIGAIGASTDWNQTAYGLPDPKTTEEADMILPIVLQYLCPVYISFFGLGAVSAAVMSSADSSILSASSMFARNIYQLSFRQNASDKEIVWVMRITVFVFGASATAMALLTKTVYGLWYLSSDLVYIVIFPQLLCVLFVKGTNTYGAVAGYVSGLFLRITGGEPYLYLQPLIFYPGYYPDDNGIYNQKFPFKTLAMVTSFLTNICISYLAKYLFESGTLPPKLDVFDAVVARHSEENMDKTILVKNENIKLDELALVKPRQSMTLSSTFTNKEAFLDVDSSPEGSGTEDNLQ

[4] = biological target: T1, High affinity choline transporter 1; assay: CHT inhibitors, dose response, cell-based, 5-point CRC, membrane potential dye (AID 504840); assay type: functional
[5] = cytotoxicity in HEK-293T cells, dose response, cytotoxicity control for TCR NF-kB inhibitor project, luminescence, T-cell screen hits (AID 489026); assay type: functional, cell-based;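 also: cells exposed to compound about 14 hours before the viability readout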
[6] = biological target: T2, Corticotropin-releasing factor receptor 2/Corticotropin-releasing factor-binding protein (Homo sapiens, UniProt P24387+Q13324); assay: Dose Response confirmation of uHTS hits for small molecule antagonists of the CRF-binding protein and CRF-R2 receptor complex.; assay type: functional; settings: read-out: IC50_Mean
T2 sequence (Q13324 whole entry): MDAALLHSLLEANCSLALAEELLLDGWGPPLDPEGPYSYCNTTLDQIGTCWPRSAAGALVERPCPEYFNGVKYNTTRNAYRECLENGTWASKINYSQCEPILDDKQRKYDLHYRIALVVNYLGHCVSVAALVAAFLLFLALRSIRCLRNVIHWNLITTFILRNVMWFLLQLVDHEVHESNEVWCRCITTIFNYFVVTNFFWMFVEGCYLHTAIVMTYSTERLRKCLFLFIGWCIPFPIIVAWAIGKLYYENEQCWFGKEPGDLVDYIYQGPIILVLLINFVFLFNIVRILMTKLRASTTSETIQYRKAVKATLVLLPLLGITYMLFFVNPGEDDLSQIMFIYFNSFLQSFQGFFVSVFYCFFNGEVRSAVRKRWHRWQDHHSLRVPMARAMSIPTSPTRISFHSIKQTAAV
T2 sequence (P24387 whole entry): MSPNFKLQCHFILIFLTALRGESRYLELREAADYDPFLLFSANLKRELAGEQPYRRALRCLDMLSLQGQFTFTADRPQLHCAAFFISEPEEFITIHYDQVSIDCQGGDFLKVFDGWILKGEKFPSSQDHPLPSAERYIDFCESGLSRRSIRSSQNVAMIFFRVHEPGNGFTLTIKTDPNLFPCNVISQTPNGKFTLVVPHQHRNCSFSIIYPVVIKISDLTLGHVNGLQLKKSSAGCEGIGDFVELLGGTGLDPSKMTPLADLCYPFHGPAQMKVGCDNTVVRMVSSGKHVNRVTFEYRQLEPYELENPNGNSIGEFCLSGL

[7] = biological target: T2, Corticotropin-releasing factor receptor 2/Corticotropin-releasing factor-binding protein; assay: activators of CRF receptor 2 with binding protein – uHTS hits, confirmation (AID 602473); assay type: functional; settings: read-out: EC50_Mean
Protein skinhead-1 = biological target: T3, Protein skinhead-1 (Caenorhabditis elegans, UniProt P34707); assay type: functional
T3 sequence (P34707 whole entry): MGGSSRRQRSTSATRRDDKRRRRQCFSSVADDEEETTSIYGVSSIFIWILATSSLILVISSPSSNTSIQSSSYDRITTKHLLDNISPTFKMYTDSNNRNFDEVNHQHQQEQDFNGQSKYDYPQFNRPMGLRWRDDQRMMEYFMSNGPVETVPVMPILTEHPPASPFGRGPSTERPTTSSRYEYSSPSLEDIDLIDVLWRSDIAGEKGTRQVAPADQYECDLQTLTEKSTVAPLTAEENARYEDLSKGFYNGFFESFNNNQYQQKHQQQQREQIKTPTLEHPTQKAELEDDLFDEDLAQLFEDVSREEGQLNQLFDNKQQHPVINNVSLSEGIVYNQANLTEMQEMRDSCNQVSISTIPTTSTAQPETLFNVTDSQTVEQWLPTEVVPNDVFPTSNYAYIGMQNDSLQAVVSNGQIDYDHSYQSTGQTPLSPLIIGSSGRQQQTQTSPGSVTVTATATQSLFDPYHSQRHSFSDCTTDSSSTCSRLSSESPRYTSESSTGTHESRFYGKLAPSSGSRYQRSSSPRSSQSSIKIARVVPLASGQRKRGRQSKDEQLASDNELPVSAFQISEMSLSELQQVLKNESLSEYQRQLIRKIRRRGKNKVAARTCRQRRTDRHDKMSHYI

[8] = inhibitors of SNCA 5'UTR-driven reporter translation, confirmation, H4 neuroglioma cells, luminescence (AID 1988); assay type: functional, cell-based
INS1 = assay: beta cell apoptosis inhibitors, cytokine rescue, dose response, luminescence, retest (AID 449756); assay type: functional, cell-based; settings: Rattus norvegicus;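 also: cell death triggered by IL-1 beta plus TNF-alpha plus IFN-gamma mixture; protective hits raise ATP signal compared with cytokine alone wells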
[9] = cytotoxicity toward DRD oncogenic fibroblasts, dose response, cell-based, non-viral oncogenic, luminescence (AID 1934); assay type: functional; settings: Homo sapiens
BJ [10] = assay: cytotoxicity toward BJ-TERT fibroblasts, dose response, cell-based, RAS-independent, luminescence (AID 1933); assay type: functional; settings: Homo sapiens
[11] = Luminescence Cell-Based Dose Response HTS to Identify Inhibitors of 5'UTR Stem-Loop Driven Prion Protein mRNA Translation in H4 Neuroglioblastoma Cells. [Related pubchem assays: 1827 (Project Summary), 1813 (Primary HTS)]; assay type: functional
BJ [12] = assay: cells; assay type: functional, cell-based; settings: Homo sapiens
BJ [13] = assay: cytotoxicity toward BJ-TERT-LT-ST fibroblasts, dose response, cell-based, RAS-independent, luminescence (AID 1935); assay type: functional; settings: Homo sapiens;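 also: BJ fibroblasts immortalized with TERT plus LT and ST oncogenes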
[14] = inhibitors of firefly luciferase expression or activity, dose response, H4 neuroglioma cells, luminescence (AID 1990); assay type: functional, cell-based
[15] = Luminescence Cell-Based Dose Retest to Confirm Inhibitors of Cancer Stem Cells. [Related pubchem assays (depositor defined):AID2717, AID2721]; assay type: functional; settings: Homo sapiens
[16] = biological target: T4, Heat shock factor protein 1 (Mus musculus, UniProt P38532); assay: inhibition of MG132-induced HSE-luciferase signal, confirmation, cell-based, NIH3T3, luminescence, dose retest (AID 2382); assay type: functional;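 also: NIH3T3 fibroblasts with HSF1-driven luciferase reporter stressed by proteasome inhibitor MG132; luminescence from HSF1-driven luciferase expression after 8 hours of MG132 stress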
T4 sequence (P38532 whole entry): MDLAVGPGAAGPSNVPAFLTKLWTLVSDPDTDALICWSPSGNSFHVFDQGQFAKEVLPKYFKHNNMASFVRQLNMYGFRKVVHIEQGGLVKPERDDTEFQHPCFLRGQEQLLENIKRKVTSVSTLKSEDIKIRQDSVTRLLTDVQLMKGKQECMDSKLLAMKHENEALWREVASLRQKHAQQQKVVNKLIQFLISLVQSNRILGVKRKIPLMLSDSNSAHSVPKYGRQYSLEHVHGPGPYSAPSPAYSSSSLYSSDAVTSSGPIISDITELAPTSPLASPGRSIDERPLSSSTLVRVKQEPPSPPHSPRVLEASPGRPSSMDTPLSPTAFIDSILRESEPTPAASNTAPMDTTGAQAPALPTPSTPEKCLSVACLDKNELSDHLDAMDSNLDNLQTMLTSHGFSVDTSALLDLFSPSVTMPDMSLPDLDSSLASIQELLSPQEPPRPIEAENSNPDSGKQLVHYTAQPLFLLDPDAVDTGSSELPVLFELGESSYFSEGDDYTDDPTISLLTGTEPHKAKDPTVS

Beta-2 adrenergic receptor, sequence (P07550 whole entry): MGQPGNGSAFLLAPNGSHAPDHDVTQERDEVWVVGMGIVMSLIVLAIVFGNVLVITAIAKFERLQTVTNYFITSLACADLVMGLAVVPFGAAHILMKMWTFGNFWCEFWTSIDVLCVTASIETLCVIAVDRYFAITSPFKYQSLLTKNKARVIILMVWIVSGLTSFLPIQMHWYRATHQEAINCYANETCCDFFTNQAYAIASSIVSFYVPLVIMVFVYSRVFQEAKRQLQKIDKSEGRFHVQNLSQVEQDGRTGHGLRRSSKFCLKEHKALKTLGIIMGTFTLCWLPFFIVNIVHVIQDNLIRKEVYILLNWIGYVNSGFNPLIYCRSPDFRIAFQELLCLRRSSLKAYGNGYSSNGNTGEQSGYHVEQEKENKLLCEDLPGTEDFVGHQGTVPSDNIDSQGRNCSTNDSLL

## COc1ccc([C@H]2/C=C\CN(Cc3ccc(N(C)C)cc3)[C@@H](C)C(=O)N2Cc2ccc(F)cc2)cc1
[1]
  EC50: 4.36 µM (active)

## CCc1ccc(N(C2C=CS(=O)(=O)C2)S(=O)(=O)c2ccc(C)cc2)cc1 (stereo not given)
[2]
  CC50: > 40 µM (active)

## Cn1c2c(c(=O)c3ccccc31)CCCC2
[3]
  IC50: 4.22 µM (active)
[4]
  IC50: 6.99 µM (active)

## CCN(CC)P(=S)(c1c(C)nc2ccccn12)c1c(C)nc2ccccn12
[2]
  CC50: 13.9 µM (active)

## COC(=O)Cn1ccc(N(C)C)c(C#N)c1=O
[3]
  IC50: 2.89 µM (active)
[4]
  IC50: 4.07 µM (active)

## COc1ccc(C(=O)c2ccc(N(C)C)cc2)c(OC)c1
[5]
  IC50: > 80 µM (inactive)

## c1cn(C23CC4CC(CC(C4)C2)C3)cn1
[3]
  IC50: 3.57 µM (active)
[4]
  IC50: 7.43 µM (active)

## COc1ccc(Cc2nc(-c3ccc(Cl)cc3)no2)cc1
[6]
  IC50: > 47.1 µM (inactive)
[7]
  EC50: > 53 µM (inactive)
Protein skinhead-1
  IC50: > 100 µM (inactive)

## COc1ccc(/C=C/C(=O)c2ccc([N+](=O)[O-])o2)cc1OC
[8]
  EC50: > 120 µM (not active)
INS1
  AC50: 3.94 µM (active)
[9]
  EC50: 2.58 µM (inconclusive)
BJ [10]
  EC50: > 150 µM (not active)
[11]
  EC50: 10.5 µM (active)
BJ [12]
  EC50: > 150 µM (inconclusive)
BJ [13]
  EC50: 1.15 µM (inconclusive)
[14]
  EC50: 9.14 µM (active)
[15]
  AC50: 2.09 µM (active)

## COc1ccc(C2Nc3ccccc3C(=O)N2c2ccc(Cl)cc2)cc1Cn1cc([N+](=O)[O-])cn1 (stereo not given)
[2]
  CC50: > 40 µM (active)

## CCCCOc1cccc(C(=O)Nc2ccc(NC(=O)c3cccs3)cc2)c1
[16]
  EC50: 9.51 µM (active)
[1]
  EC50: 0.256 µM (active)
